# Test results reported in ChEMBL document CHEMBL4402597, “Truncated (N)-Methanocarba Nucleosides as Partial Agonists at Mouse and Human A3 Adenosine Receptors: Affinity Enhancement by N6-(2-Phenylethyl) Substitution” (J Med Chem, 2020).
# Biological target: T1, Adenosine receptor A1 (Homo sapiens) (UniProt P30542)
# T1 sequence (whole entry): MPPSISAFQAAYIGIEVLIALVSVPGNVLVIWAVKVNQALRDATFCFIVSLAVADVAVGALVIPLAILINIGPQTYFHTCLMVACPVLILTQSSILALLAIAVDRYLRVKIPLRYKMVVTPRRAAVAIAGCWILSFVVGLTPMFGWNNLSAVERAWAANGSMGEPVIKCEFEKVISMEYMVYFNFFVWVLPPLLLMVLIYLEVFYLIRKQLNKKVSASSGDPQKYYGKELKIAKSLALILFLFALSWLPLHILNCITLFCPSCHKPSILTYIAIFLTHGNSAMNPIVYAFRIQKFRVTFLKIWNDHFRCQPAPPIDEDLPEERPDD
# Assay: Displacement of [3H]R-PIA from recombinant human A1AR expressed in HEK293 cell membranes at 10 uM measured after 60 mins by liquid scintillation counting method relative to control
row,Structure (SMILES),inhibition [%]
1,COc1ccc(CCNc2nc(C#Cc3ccccc3)nc3c2ncn3[C@H]2[C@H](O)[C@H](O)[C@@H]3C[C@@H]32)cc1O,49
2,Cc1cccc(CCNc2nc(C#Cc3ccc(Cl)s3)nc3c2ncn3[C@H]2[C@H](O)[C@H](O)[C@@H]3C[C@@H]32)c1,29
3,Oc1ccc(CCNc2nc(C#Cc3ccccc3)nc3c2ncn3[C@H]2[C@H](O)[C@H](O)[C@@H]3C[C@@H]32)cc1O,28
4,COc1cc(CCNc2nc(C#Cc3ccc(Br)s3)nc3c2ncn3[C@H]2[C@H](O)[C@H](O)[C@@H]3C[C@@H]32)ccc1O,15
5,O[C@@H]1[C@H](O)[C@@H]2C[C@@H]2[C@H]1n1cnc2c(NCCc3ccccc3)nc(C#Cc3ccc(Cl)s3)nc21,10
6,COc1cc(CCNc2nc(C#Cc3ccc(F)cc3)nc3c2ncn3[C@H]2[C@H](O)[C@H](O)[C@@H]3C[C@@H]32)ccc1O,39
7,O[C@@H]1[C@H](O)[C@@H]2C[C@@H]2[C@H]1n1cnc2c(NCCc3cccc(Cl)c3)nc(C#Cc3ccc(Cl)s3)nc21,39
8,O[C@@H]1[C@H](O)[C@@H]2C[C@@H]2[C@H]1n1cnc2c(NCCc3cccc(F)c3)nc(C#Cc3ccc(Cl)s3)nc21,31
9,Oc1ccc(CCNc2nc(C#Cc3ccccc3)nc3c2ncn3[C@H]2[C@H](O)[C@H](O)[C@@H]3C[C@@H]32)cc1,29
10,COc1cc(CCNc2nc(C#Cc3cccnc3)nc3c2ncn3[C@H]2[C@H](O)[C@H](O)[C@@H]3C[C@@H]32)ccc1O,36
11,O[C@@H]1[C@H](O)[C@@H]2C[C@@H]2[C@H]1n1cnc2c(N[C@H]3C[C@@H]3c3ccccc3)nc(C#Cc3ccc(Cl)s3)nc21,32

# Biological target: T2, Adenosine receptor A3 (Homo sapiens, UniProt P0DMS8)
# T2 sequence (P0DMS8 whole entry): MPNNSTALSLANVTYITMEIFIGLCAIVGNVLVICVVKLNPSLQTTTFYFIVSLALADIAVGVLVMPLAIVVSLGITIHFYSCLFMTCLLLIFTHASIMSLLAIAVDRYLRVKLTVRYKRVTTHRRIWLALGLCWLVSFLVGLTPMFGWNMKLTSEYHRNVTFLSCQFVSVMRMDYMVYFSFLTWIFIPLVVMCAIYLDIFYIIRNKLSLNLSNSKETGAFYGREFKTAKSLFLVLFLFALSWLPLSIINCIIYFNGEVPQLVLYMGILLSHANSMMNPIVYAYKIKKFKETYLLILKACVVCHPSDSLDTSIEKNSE
# Assay: Partial agonist activity at recombinant human A3AR expressed in HEK293 cells assessed as inhibition of forskolin-stimulated cAMP accumulation measured after 30 mins in presence of A2BAR blocker PSB-603 by Glo-sensor assay
# Assay type: functional, cell-based
row,Structure (SMILES),EC50 [nM]
1,COc1cc(CCNc2nc(C#Cc3ccc(Br)s3)nc3c2ncn3[C@H]2[C@H](O)[C@H](O)[C@@H]3C[C@@H]32)ccc1O,692
2,O[C@@H]1[C@H](O)[C@@H]2C[C@@H]2[C@H]1n1cnc2c(NCCc3ccccc3)nc(C#Cc3ccc(Cl)s3)nc21,2410

# Biological target: T3, Adenosine receptor A3 (Homo sapiens) (UniProt P0DMS8)
# T3 sequence (whole entry): T2 sequence (P0DMS8 whole entry)
# Assay: Partial agonist activity at recombinant human A3AR expressed in HEK293 cells assessed as inhibition of forskolin-stimulated cAMP accumulation at 10 uM measured after 30 mins in presence of A2BAR blocker PSB-603 by Glo-sensor assay relative to Cl-IB-MECA
# Assay type: functional, cell-based
row,Structure (SMILES),Emax [%]
1,COc1cc(CCNc2nc(C#Cc3ccc(Br)s3)nc3c2ncn3[C@H]2[C@H](O)[C@H](O)[C@@H]3C[C@@H]32)ccc1O,50
2,O[C@@H]1[C@H](O)[C@@H]2C[C@@H]2[C@H]1n1cnc2c(NCCc3ccccc3)nc(C#Cc3ccc(Cl)s3)nc21,80

# Biological target: Adenosine receptor A2a (Homo sapiens, UniProt P29274)
# Assay: Displacement of [3H]CGS21680 from recombinant human A2AAR expressed in HEK293 cell membranes at 10 uM measured after 60 mins by liquid scintillation counting method relative to control
# Adenosine receptor A2a, sequence (P29274 whole entry): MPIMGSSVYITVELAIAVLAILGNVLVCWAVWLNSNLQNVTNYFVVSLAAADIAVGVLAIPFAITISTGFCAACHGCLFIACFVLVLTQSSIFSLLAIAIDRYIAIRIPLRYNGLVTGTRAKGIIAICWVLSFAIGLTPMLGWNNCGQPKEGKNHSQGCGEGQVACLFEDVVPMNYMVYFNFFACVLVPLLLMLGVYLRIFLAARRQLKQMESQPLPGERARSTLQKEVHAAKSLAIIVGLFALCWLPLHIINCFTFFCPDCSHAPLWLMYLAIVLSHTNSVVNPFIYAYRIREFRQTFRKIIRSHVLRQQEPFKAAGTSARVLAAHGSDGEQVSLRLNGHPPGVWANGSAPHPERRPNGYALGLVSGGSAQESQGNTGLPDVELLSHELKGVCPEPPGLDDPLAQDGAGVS
row,Structure (SMILES),inhibition [%]
1,COc1ccc(CCNc2nc(C#Cc3ccccc3)nc3c2ncn3[C@H]2[C@H](O)[C@H](O)[C@@H]3C[C@@H]32)cc1O,27
2,Cc1cccc(CCNc2nc(C#Cc3ccc(Cl)s3)nc3c2ncn3[C@H]2[C@H](O)[C@H](O)[C@@H]3C[C@@H]32)c1,50
3,Oc1ccc(CCNc2nc(C#Cc3ccccc3)nc3c2ncn3[C@H]2[C@H](O)[C@H](O)[C@@H]3C[C@@H]32)cc1O,27
4,COc1cc(CCNc2nc(C#Cc3ccc(Br)s3)nc3c2ncn3[C@H]2[C@H](O)[C@H](O)[C@@H]3C[C@@H]32)ccc1O,38
5,O[C@@H]1[C@H](O)[C@@H]2C[C@@H]2[C@H]1n1cnc2c(NCCc3ccccc3)nc(C#Cc3ccc(Cl)s3)nc21,46
6,COc1cc(CCNc2nc(C#Cc3ccc(F)cc3)nc3c2ncn3[C@H]2[C@H](O)[C@H](O)[C@@H]3C[C@@H]32)ccc1O,51
7,O[C@@H]1[C@H](O)[C@@H]2C[C@@H]2[C@H]1n1cnc2c(NCCc3cccc(Cl)c3)nc(C#Cc3ccc(Cl)s3)nc21,59
8,O[C@@H]1[C@H](O)[C@@H]2C[C@@H]2[C@H]1n1cnc2c(NCCc3cccc(F)c3)nc(C#Cc3ccc(Cl)s3)nc21,55
9,Oc1ccc(CCNc2nc(C#Cc3ccccc3)nc3c2ncn3[C@H]2[C@H](O)[C@H](O)[C@@H]3C[C@@H]32)cc1,32
10,COc1cc(CCNc2nc(C#Cc3cccnc3)nc3c2ncn3[C@H]2[C@H](O)[C@H](O)[C@@H]3C[C@@H]32)ccc1O,39
11,O[C@@H]1[C@H](O)[C@@H]2C[C@@H]2[C@H]1n1cnc2c(N[C@H]3C[C@@H]3c3ccccc3)nc(C#Cc3ccc(Cl)s3)nc21,44

# Biological target: T3, Adenosine receptor A3 (Homo sapiens)
# Assay: Partial agonist activity at recombinant human A3AR expressed in HEK293 cells assessed as inhibition of forskolin-stimulated cAMP accumulation by measuring residual cAMP level measured after 30 mins in presence of A2BAR blocker PSB-603 by Glo-sensor assay relative to control
# Assay type: functional, cell-based
row,Structure (SMILES),Emax [%]
1,COc1cc(CCNc2nc(C#Cc3ccc(Br)s3)nc3c2ncn3[C@H]2[C@H](O)[C@H](O)[C@@H]3C[C@@H]32)ccc1O,61
2,O[C@@H]1[C@H](O)[C@@H]2C[C@@H]2[C@H]1n1cnc2c(NCCc3ccccc3)nc(C#Cc3ccc(Cl)s3)nc21,37.6

# Biological target: T4, Adenosine receptor A1 (Mus musculus, UniProt Q60612)
# T4 sequence (Q60612 whole entry): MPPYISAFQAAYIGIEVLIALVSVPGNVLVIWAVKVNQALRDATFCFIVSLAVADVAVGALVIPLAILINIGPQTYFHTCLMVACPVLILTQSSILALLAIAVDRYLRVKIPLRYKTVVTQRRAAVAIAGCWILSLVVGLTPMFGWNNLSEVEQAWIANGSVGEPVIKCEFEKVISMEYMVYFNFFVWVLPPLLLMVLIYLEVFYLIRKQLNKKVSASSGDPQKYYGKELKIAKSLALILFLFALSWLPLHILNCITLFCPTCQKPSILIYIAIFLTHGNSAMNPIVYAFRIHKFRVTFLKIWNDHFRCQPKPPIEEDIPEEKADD
# Assay: Displacement of [3H]R-PIA from recombinant mouse A1AR expressed in HEK293 cell membranes measured after 60 mins by liquid scintillation counting method
row,Structure (SMILES),Ki [nM]
1,Oc1ccc(CCNc2nc(C#Cc3ccccc3)nc3c2ncn3[C@H]2[C@H](O)[C@H](O)[C@@H]3C[C@@H]32)cc1O,1420
2,COc1cc(CCNc2nc(C#Cc3ccc(Br)s3)nc3c2ncn3[C@H]2[C@H](O)[C@H](O)[C@@H]3C[C@@H]32)ccc1O,2840

# Biological target: Translocator protein (Homo sapiens, UniProt P30536)
# Assay: Inhibition of TSPO (unknown origin)
# Translocator protein, sequence (P30536 whole entry): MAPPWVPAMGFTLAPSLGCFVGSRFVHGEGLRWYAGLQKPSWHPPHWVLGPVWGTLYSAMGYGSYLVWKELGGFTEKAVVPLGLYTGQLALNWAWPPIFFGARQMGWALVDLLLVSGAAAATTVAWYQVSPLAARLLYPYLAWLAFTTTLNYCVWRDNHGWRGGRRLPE
row,Structure (SMILES),Ki [nM]
1,O[C@@H]1[C@H](O)[C@@H]2C[C@@H]2[C@H]1n1cnc2c(NCCc3cccc(F)c3)nc(C#Cc3ccc(Cl)s3)nc21,200

# Biological target: T2, Adenosine receptor A3
# Assay: biochemical
row,Structure (SMILES),Ki [nM]
1,COc1ccc(CCNc2nc(C#Cc3ccccc3)nc3c2ncn3[C@H]2[C@H](O)[C@H](O)[C@@H]3C[C@@H]32)cc1O,6.85
2,Cc1cccc(CCNc2nc(C#Cc3ccc(Cl)s3)nc3c2ncn3[C@H]2[C@H](O)[C@H](O)[C@@H]3C[C@@H]32)c1,106
3,Oc1ccc(CCNc2nc(C#Cc3ccccc3)nc3c2ncn3[C@H]2[C@H](O)[C@H](O)[C@@H]3C[C@@H]32)cc1O,48.8
4,COc1cc(CCNc2nc(C#Cc3ccc(Br)s3)nc3c2ncn3[C@H]2[C@H](O)[C@H](O)[C@@H]3C[C@@H]32)ccc1O,3.24
5,O[C@@H]1[C@H](O)[C@@H]2C[C@@H]2[C@H]1n1cnc2c(NCCc3ccccc3)nc(C#Cc3ccc(Cl)s3)nc21,8.17
6,COc1cc(CCNc2nc(C#Cc3ccc(F)cc3)nc3c2ncn3[C@H]2[C@H](O)[C@H](O)[C@@H]3C[C@@H]32)ccc1O,6.51
7,O[C@@H]1[C@H](O)[C@@H]2C[C@@H]2[C@H]1n1cnc2c(NCCc3cccc(Cl)c3)nc(C#Cc3ccc(Cl)s3)nc21,58.4
8,O[C@@H]1[C@H](O)[C@@H]2C[C@@H]2[C@H]1n1cnc2c(NCCc3cccc(F)c3)nc(C#Cc3ccc(Cl)s3)nc21,42.2
9,Oc1ccc(CCNc2nc(C#Cc3ccccc3)nc3c2ncn3[C@H]2[C@H](O)[C@H](O)[C@@H]3C[C@@H]32)cc1,45.6
10,COc1cc(CCNc2nc(C#Cc3cccnc3)nc3c2ncn3[C@H]2[C@H](O)[C@H](O)[C@@H]3C[C@@H]32)ccc1O,6.7
11,O[C@@H]1[C@H](O)[C@@H]2C[C@@H]2[C@H]1n1cnc2c(N[C@H]3C[C@@H]3c3ccccc3)nc(C#Cc3ccc(Cl)s3)nc21,80.5

# Biological target: T5, Adenosine receptor A3 (Mus musculus, UniProt Q61618)
# T5 sequence (Q61618 whole entry): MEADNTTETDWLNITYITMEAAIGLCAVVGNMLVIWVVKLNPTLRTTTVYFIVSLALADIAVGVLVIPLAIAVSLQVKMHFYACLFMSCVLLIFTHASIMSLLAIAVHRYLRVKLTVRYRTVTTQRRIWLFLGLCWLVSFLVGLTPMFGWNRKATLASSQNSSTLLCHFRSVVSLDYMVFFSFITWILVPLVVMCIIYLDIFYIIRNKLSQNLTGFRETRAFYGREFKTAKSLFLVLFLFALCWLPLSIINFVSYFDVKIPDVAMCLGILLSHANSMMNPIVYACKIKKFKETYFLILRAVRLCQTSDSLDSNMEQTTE
# Assay: biochemical
row,Structure (SMILES),Ki [nM]
1,COc1ccc(CCNc2nc(C#Cc3ccccc3)nc3c2ncn3[C@H]2[C@H](O)[C@H](O)[C@@H]3C[C@@H]32)cc1O,122
2,Cc1cccc(CCNc2nc(C#Cc3ccc(Cl)s3)nc3c2ncn3[C@H]2[C@H](O)[C@H](O)[C@@H]3C[C@@H]32)c1,675
3,Oc1ccc(CCNc2nc(C#Cc3ccccc3)nc3c2ncn3[C@H]2[C@H](O)[C@H](O)[C@@H]3C[C@@H]32)cc1O,39.8
4,COc1cc(CCNc2nc(C#Cc3ccc(Br)s3)nc3c2ncn3[C@H]2[C@H](O)[C@H](O)[C@@H]3C[C@@H]32)ccc1O,26
5,O[C@@H]1[C@H](O)[C@@H]2C[C@@H]2[C@H]1n1cnc2c(NCCc3ccccc3)nc(C#Cc3ccc(Cl)s3)nc21,995
6,COc1cc(CCNc2nc(C#Cc3ccc(F)cc3)nc3c2ncn3[C@H]2[C@H](O)[C@H](O)[C@@H]3C[C@@H]32)ccc1O,54.4
7,O[C@@H]1[C@H](O)[C@@H]2C[C@@H]2[C@H]1n1cnc2c(NCCc3cccc(Cl)c3)nc(C#Cc3ccc(Cl)s3)nc21,531
8,O[C@@H]1[C@H](O)[C@@H]2C[C@@H]2[C@H]1n1cnc2c(NCCc3cccc(F)c3)nc(C#Cc3ccc(Cl)s3)nc21,488
9,Oc1ccc(CCNc2nc(C#Cc3ccccc3)nc3c2ncn3[C@H]2[C@H](O)[C@H](O)[C@@H]3C[C@@H]32)cc1,76.4
10,COc1cc(CCNc2nc(C#Cc3cccnc3)nc3c2ncn3[C@H]2[C@H](O)[C@H](O)[C@@H]3C[C@@H]32)ccc1O,155
11,O[C@@H]1[C@H](O)[C@@H]2C[C@@H]2[C@H]1n1cnc2c(N[C@H]3C[C@@H]3c3ccccc3)nc(C#Cc3ccc(Cl)s3)nc21,1140
